From patent publication US20250170239A1, “CELLULAR REPROGRAMMING BY TARGETING THE GOLGI APPARATUS” (MUSC Foundation for Research Development, priority 2023, published 2025)

Legend:
Foxo1 = assay: Nuclear vs cytoplasmic Foxo1 by western blot; type: cell-based, mouse; settings: GYY4137 0.5 mM, 3 days
Protocol: (FIG. 18C) NAD+ and nicotinamide quantification from metabolomics dataset.
For evaluation of the protein level, cell pellets were washed in PBS and lysed in RIPA buffer (Thermo Fisher Scientific, Waltham, MA), including protease/phosphatase inhibitors, vortexed, and incubated for 20 minutes on ice. Cell lysates were then centrifuged at 12,000 rpm for 15 min at 4° C. The supernatants were collected, and proteins were quantified with a BCA protein assay kit (Thermo Fisher Scientific, Waltham, MA). For immunoblot analyses, 20 μg of protein lysates per sample were denatured in 4× Loading dye and boiled using a heating block at 95 degrees for 10 minutes before loading to SDS gradient gels 4%-20% (Bio-Rad Criterion, 1h runs). Gels were semi-dry transferred onto PVDF, and the membranes were blocked with 3% milk in 0.1% TBST. The membraneNext, the membrane was probed with the following primary antibodies: anti-Prdx4 (Proteintech, 10703-1-AP), anti-eIF2a (Cell Signaling Technology, #9722), or anti-β-Actin (Signaling Technology, #4967L) overnight at 4° C. followed by one-hour incubation with HRP-conjugated secondary antibody (Cell Signaling Technology, Danvers, MA) and using a Clarity Western ECL Substrate (Bio-Rad, Hercules, CA).

Pmel T cells [1] = settings: activated in presence of H2S donor
Protocol: Oxygen consumption rate (OCR) and extracellular acidification rate (ECAR) were determined using the Seahorse Xfe96 analyzer (Agilent Technologies, Santa Clara, CA). Briefly, T cells (0.5×10^6/well) were plated on a Cell-Tak coated Seahorse culture plate for 30 min. OCR, a measure of OXPHOS, was analyzed under basal condition, or in response to 1.0 μM oligomycin, 1.0 μM fluoro-carbonyl cyanide phenylhydrazone (FCCP) and 2 μM rotenone, plus 100 nM antimycin A. ECAR, a measure of glycolysis, was measured under basal conditions and in response to glucose (5.5 mM), Oligomycin (1.0 μM), and 2-deoxyglucose (2-DG) (100 mM). All reagents were purchased from Sigma-Aldrich, St. Louis, MO.

[2] = test system: phospho-PERK, phospho-IRE1a, ATF4; settings: 12-hr incubation with 50 mM H2O2
[3] = test system: Prdx4-Golgi colocalization; settings: 50 mM H2O2 24 hrs
Protocol: (§1) (FIG. 22A) Pmel T cells were activated for 3 days before treatment with vehicle or 50 mM H2O2 for 6 hrs. Prdx4-Golgi colocalization was assessed by PLA using mouse anti-Giantin and rabbit anti-Prdx4 antibodies. (FIG. 22B) Activated Pmel T cells treated with vehicle or 50 mM H2O2 for 6 hrs or 24 hrs with Monensin (1 mM). PLA assay was performed using anti-Giantin and anti-Prdx4 antibodies. (FIG. 22C) Experimental design using Prdx4-targeted siRNA to silence expression of Prdx4 in Pmel T cells. (FIG. 22D) GM130 expression assessed under control versus Monensin (1 μM) conditions in T cells treated with control-siRNA or Prdx4-siRNA. (FIG. 22E) GM130 expression assessed under control versus 50 mM H2O2 conditions in T cells treated with control-siRNA or Prdx4-siRNA+/−0.5 mM GYY4137. (FIG. 22F) Protein translation assessed in Pmel T cells activated+/−GYY4137 and treated with control-siRNA or Prdx4-siRNA. (FIG. 22G) GM130 expression in Pmel T cells treated with vehicle, GYY4137, or Catalase (10 μg/mL). (FIGS. 22H and 22I) Site directed mutagenesis performed to mutate cysteine-54 of the Prdx4 gene. Prdx4-targeted shRNA was used to knock down expression of Prdx4 in Jurkat T cells, followed by transfection with plasmid containing wildtype or mutated Prdx4. (FIG. 22I) GM130 expression assessed after treatment with 50 mM H2O2+/−GYY4137. […]

Jurkat cells = settings: 50 mM H2O2 +/− GYY4137; wildtype vs C51A Prdx4
Protocol: as §1

[4] = test system: TILs isolated from B16-F10 tumors; settings: expanded +/− GYY4137
Protocol: To obtain tumor-infiltrating T cells (TILs) from subcutaneously established solid B16-F10 melanoma-bearing mice, tumors were excised, chopped finely using tweezers and scissors, and then digested with 2 mg/ml collagenase type IV (Stemcell Technologies, Vancouver, BC) for 45 min. The tumors were filtered through […] (BD Biosciences, San Jose, CA). The cell suspension was washed in culture medium twice by centrifugation at 1500 rpm for 10 min at 4° C. After the second wash, the cells were re-suspended in 6 ml PBS and layered carefully over 3 ml Ficoll-paque (GE Healthcare) followed by centrifugation at 1500 rpm for 30 min at room temperature. The enriched TILs obtained at the interface as a thin buffy layer were washed with PBS twice and finally re-suspended in FACS staining buffer for further staining procedures.

Pmel T cells [5] = test system: Pmel T cells
Protocol: On day 3, the cells were collected for RNA-sequencing analysis (n=3 independent samples). (FIG. 14A) Principle component analysis (PCA) of control versus H2S-treated samples. […] (FIG. 14E) Schematic of experimental design for cytokine and translation assays. (FIG. 14F) Pmel CD8+ T cells were activated for 3 days with gp100 and IL2+/−0.5 mM GYY4137. On day 3, the cells were washed and re-stimulated with gp100 for 4 hours, followed by measurement of cytokine production via FACS. (FIG. 14G) Active protein translation was assessed using Click-iT Plus OPP Alexa Fluor 647 Protein Synthesis Assay Kit (ThermoFisher) (n=3 independent samples) in Pmel T cells after re-stimulation (n=3 independent samples). (FIG. 14H) Levels of EIF2a, phosphorylated 4EBP1, and phosphorylated rS6 evaluated via FACS in Pmel T cells after re-stimulation (n=4 independent samples). (FIG. 14I) Pmel CD8+ T cells were activated for 2 days with gp100 and IL2 followed by transduction with either control lentivirus or CBS-expressing lentivirus. On day 5, the cells were washed and re-stimulated with gp100 for 4 hours. Quantification of protein translation assessed using Click-iT Plus OPP Alexa Fluor 647 Protein Synthesis Assay Kit and quantification intracellular cytokines assessed using FACS (n=3 independent samples). MFI represents mean fluorescence intensity.
Pmel T cells were re-stimulated with gp100 peptide (0.1 μg/mL) and Click-iT™ Plus OPP Alexa Fluor™ 647 Protein Synthesis Assay Kit (ThermoFisher Scientific #C10458) was used to measure protein translation using flow cytometry following the manufacturer's protocol.

C1COCCN1.COc1ccc(P(=S)(S)N2CCOCC2)cc1 (stereo not drawn) [GYY4137]
nuclear localization of Foxo1 (Foxo1): increased nuclear localization of Foxo1
basal respiration (Pmel T cells [1]): did not alter basal respiration
maximal respiration (Pmel T cells [1]): significant increase
spare respiratory capacity (SRC) (Pmel T cells [1]): significant increase
oxidative stress-induced increase of phospho-PERK, phospho-IRE1a, ATF4 [2]: this increase was mitigated
loss of Prdx4 localization within the Golgi under prolonged oxidative stress [3]: loss of colocalization was mitigated
protective effect on H2O2-induced Golgi stress (GM130) (Jurkat cells): only observed in Jurkat cells expressing wildtype Prdx4
GM130 expression [4]: significantly higher GM130 expression
PD1 expression [4]: lower PD1 expression
phosphorylation of 4EBP1 (Pmel T cells [5]; FACS after re-stimulation): increased phosphorylation of 4EBP1
total EIF2α and phosphorylated S6 ribosomal protein (Pmel T cells [5]; FACS after re-stimulation): increased total levels of EIF2α and phosphorylated levels of S6 ribosomal protein
overall protein translation (OPP incorporation) (Pmel T cells [5]; upon re-stimulation with cognate antigen): significantly enhanced upregulation of overall protein translation
